Test results reported in US11976059B2 (KOREA RESEARCH INSTITUTE OF CHEMICAL TECHNOLOGY, priority 2018, dated 2024).

Legend:
Ba/F3 EGFR L858R/T790M = test: Ba/F3 cell viability, CellTiter-Glo; type: cell-based; details: for cell viability: administered alone, FIGS. 1 to 4; for cell viability compared to EAI045: co-administered with Cetuximab, 30 nM or 100 nM, FIGS. 6 and 7
Experimental: In order to confirm that the compound represented by formula 1 according to the present invention acted as an allosteric inhibitor against EGFR wild-type and mutants, the inhibitory effect on EGFR wild-type and mutants in Ba/F3 cell lines was evaluated. In addition, in order to evaluate the cellular activity when the compound according to the present invention was co-administered with an existing drug, the cellular activity according to the combined administration was evaluated using Cetuximab used alone or in combination with chemotherapy in metastatic colorectal cancer and metastatic squamous head and neck cancer.
Particularly, the activity of the compound of the present invention against the wild-type and mutant Ba/F3 EGFR cell lines was measured as follows using the CellTiter-Glo system of Promega. CellTiter-Glo assay is a method to confirm the cell viability by measuring ATP present in cells in cell culture state. Ba/F3 EGFR wild-type and Ba/F3 EGFR L858R, Ba/F3 EGFR L858R/T790M and Ba/F3 L858R/T790M/C797S mutant cell lines were purchased from Crown Bioscience and used. Ba/F3 EGFR wild-type and Ba/F3 EGFR L858R, Ba/F3 EGFR L858R/T790M and Ba/F3 L858R/T790M/C797S mutant cell lines were cultured in RPMI containing 10% FBS, 1% penicillin-streptomycin and 1 ug/ml of puromycine in a 37° C., 5% CO2 incubator.
Analysis of the cell survival inhibitory effect of the compound according to each EGFR mutant was performed according to the following analytical reaction recipe.
BaF3 cells were aliquoted into 2500 cells/50 ul per well of a 96 well cell culture plate and cultured for 24 hours, to which 50 ul of the compound represented by formula 1 was treated at the concentrations of 0, 0.03, 0.1, 0.3, and 1 μM. The plate treated with the compound was reacted in a 37° C. incubator for 72 hours, and then left at room temperature for 30 minutes according to the CellTiter-Glo assay instruction to maintain the plate temperature at room temperature. Thereafter, 100 μl of CellTiter-Glo reagent was treated to each well of the plate, followed by shaking incubation at room temperature for 10 minutes. Finally, the […] was quantitatively measured using a luminometer, and the ability of the compound to inhibit cell viability was confirmed. The values measured at concentrations of the compound were analyzed using Prism program (version 5.01, Graphpad Software, Inc.), and the IC50 value, an index of the inhibitory ability of the compound, was calculated.

[1] = molecular target: EGFR L858R/T790M/C797S mutant enzyme (Homo sapiens (Human), UniProt P00533, C797S/L858R/T790M); test: EGFR mutant enzyme inhibition, HTRF system (Cisbio); type: biochemical; details: ATP 1 mM, 37° C. for 2 hours
Experimental: In order to evaluate the inhibitory activity of the compound represented by formula 1 according to the present invention against EGFR mutation, the following experiment was performed.
The activity of the compound of the present invention against EGFR mutant enzyme was measured using the HTRF system of Cisbio Co. As an EGFR L858R/T790M/C797S mutant enzyme, a protein provided by SignalChem was purchased and used as an enzyme source.
The composition of the assay buffer used for the activity measurement was as follows: 50 mM Tris-HCl (pH 7.5), 100 mM NaCl, 7.5 mM MgCl2, 3 mM KCl, 0.01% Tween 20, 0.1% BSA, and 1 mM DTT. Herein, an enzyme reaction was performed using a peptide substrate labeled with ATP at the concentration of 1 mM and biotin at the concentration of 0.5 μM. The analysis of the EGFR activity inhibitory effect of the compound was performed according to the following analytical reaction recipe.
Component 1: 4 μl of EGFR mutant enzyme
Component 2: 2 μl of compound solution
Component 3: 4 μl of ATP and biotin-labeled peptide mixture
The enzyme reaction was initiated by mixing the component 1 and the component 2 first and then adding the component 3 thereto. After reacting the mixture at 37° C. for 2 hours, 10 μl of a measurement solution consisting of streptavidin-XL665 and europium-labeled anti-phosphotyrosine antibody provided by Cisbio was added to the enzyme reaction solution, followed by reaction at room temperature for 1 hour. Finally, the ratio of the fluorescence values at 615 nm and 665 nm was calculated using Envision equipment of Perkin-Elmer to quantitatively measure the enzyme activity and confirm the inhibitory ability of the compound. The values measured at 7 concentrations of the compound were analyzed using Prism program (version 5.01, Graphpad Software, Inc.), and the IC50 value, an index of the inhibitory ability of the compound, was calculated.

Sequence of EGFR L858R/T790M/C797S mutant enzyme (P00533 25-1210 T790M/C797S/L858R): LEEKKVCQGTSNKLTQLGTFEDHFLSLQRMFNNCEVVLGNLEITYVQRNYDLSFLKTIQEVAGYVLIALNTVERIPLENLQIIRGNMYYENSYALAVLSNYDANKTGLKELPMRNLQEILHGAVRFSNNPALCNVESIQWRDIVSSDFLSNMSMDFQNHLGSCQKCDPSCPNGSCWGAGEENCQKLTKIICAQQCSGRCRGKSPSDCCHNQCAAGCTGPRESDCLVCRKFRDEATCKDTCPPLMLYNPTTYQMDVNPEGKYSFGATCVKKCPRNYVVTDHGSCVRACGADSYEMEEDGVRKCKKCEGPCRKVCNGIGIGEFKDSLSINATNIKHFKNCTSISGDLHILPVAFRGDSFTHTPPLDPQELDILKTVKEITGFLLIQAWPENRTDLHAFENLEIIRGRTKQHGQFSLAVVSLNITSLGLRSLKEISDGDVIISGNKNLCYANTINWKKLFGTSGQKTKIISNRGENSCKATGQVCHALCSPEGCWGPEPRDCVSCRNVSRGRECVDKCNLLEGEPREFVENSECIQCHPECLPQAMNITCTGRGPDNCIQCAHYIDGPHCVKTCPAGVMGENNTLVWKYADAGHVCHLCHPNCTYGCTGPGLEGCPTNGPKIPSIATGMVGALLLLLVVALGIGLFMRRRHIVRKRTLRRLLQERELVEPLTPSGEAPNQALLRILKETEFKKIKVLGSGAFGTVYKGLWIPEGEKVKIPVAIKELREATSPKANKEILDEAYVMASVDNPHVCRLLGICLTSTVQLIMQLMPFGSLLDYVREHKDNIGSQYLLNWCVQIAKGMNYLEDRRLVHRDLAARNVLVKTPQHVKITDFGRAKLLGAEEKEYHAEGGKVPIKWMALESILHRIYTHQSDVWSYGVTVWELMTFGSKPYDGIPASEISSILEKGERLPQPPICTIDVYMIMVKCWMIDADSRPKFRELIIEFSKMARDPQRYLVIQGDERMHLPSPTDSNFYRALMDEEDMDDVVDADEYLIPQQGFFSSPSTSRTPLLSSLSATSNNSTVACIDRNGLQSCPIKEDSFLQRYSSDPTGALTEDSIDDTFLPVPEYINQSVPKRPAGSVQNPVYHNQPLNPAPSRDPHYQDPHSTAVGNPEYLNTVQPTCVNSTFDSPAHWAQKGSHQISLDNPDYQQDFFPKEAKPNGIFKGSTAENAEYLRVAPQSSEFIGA

`O=C1c2cc(-c3ccc(N4CCNCC4)cc3)ccc2CN1C(c1nc2ccccc2[nH]1)c1ccccc1O` (centres unmarked) [Example 9, 2-((1H-benzo[d]imidazole-2-yl)(2-hydroxyphenyl)methyl)-6-(4-(piperazine-1-yl)phenyl)isoindolin-1-one] was tested. Which cell viability (Ba/F3 EGFR L858R/T790M) did it give?
Its cell viability is “increased cell viability”.

And the “cell viability compared to EAI045” value (Ba/F3 EGFR L858R/T790M)?
The value was “significantly reduced the cell viability”.

And the IC50 [1]?
The IC50 was 91 nM.

Which results are given for `Nc1ccc(-c2ccc3c(c2)C(=O)N(C(c2nc4ccccc4[nH]2)c2cc(F)ccc2O)C3)cc1` (centres unmarked) [Example 13, 2-((1H-benzo[d]imidazole-2-yl)(5-fluoro-2-hydroxyphenyl)methyl)-6-(4-aminophenyl)isoindolin-1-one]?
cell viability (Ba/F3 EGFR L858R/T790M): increased cell viability; IC50 [1]: 98 nM

How did the cell viability (Ba/F3 EGFR L858R/T790M) turn out when `O=C1c2cc(-c3ccc(N4CCNCC4)cc3)ccc2CN1[C@@H](c1cc2ccccc2[nH]1)c1cc(F)ccc1O` [Example 32, (R)-2-((5-fluoro-2-hydroxyphenyl)(1H-indole-2-yl)methyl)-6-(4-(piperazine-1-yl)phenyl)isoindolin-1-one] was run?
The cell viability was “increased cell viability”.

What about the “cell viability compared to EAI045” value (Ba/F3 EGFR L858R/T790M) of the same molecule?
Its value is “significantly reduced the cell viability”.

What about the IC50 [1] of the same molecule?
The IC50 was 8 nM.

What does the source list for `O=C1c2cc(-c3ccc(N4CCNCC4)cc3)ccc2CN1[C@@H](c1cc2ccccc2[nH]1)c1cc(Cl)ccc1O` [Example 33, (R)-2-((5-chloro-2-hydroxyphenyl)(1H-indole-2-yl)methyl)-6-(4-(piperazine-1-yl)phenyl)isoindolin-1-one]?
cell viability (Ba/F3 EGFR L858R/T790M): increased cell viability; cell viability compared to EAI045 (Ba/F3 EGFR L858R/T790M): significantly reduced the cell viability; IC50 [1]: 12 nM

For `O=C1c2cc(-c3ccc(N4CCN(C5CCNCC5)CC4)cc3)ccc2CN1[C@@H](c1cc2ccccc2[nH]1)c1cc(F)ccc1O` [Example 63, (R)-2-((5-fluoro-2-hydroxyphenyl)(1H-indole-2-yl)methyl)-6-(4-(4-(piperidine-4-yl)piperazine-1-yl)phenyl)isoindolin-1-one], which IC50 [1] is on record?
Its IC50 is 300 nM.

With `O=C1c2cc(-c3ccc(N4CCN(C5CCNCC5)CC4)cc3)ccc2CN1[C@@H](c1cc2ccccc2[nH]1)c1cc(Cl)ccc1O` [Example 64, (R)-2-((5-chloro-2-hydroxyphenyl)(1H-indole-2-yl)methyl)-6-(4-(4-(piperidine-4-yl)piperazine-1-yl)phenyl)isoindolin-1-one] as the molecule, how does the IC50 [1] read?
Its IC50 is 260 nM.

`CN1CCC(N2CCN(c3ccc(-c4ccc5c(c4)C(=O)N([C@@H](c4cc6ccccc6[nH]4)c4cc(F)ccc4O)C5)cc3)CC2)CC1` [Example 65, (R)-2-((5-fluoro-2-hydroxyphenyl)(1H-indole-2-yl)methyl)-6-(4-(4-(1-methylpiperidine-4-yl)piperazine-1-yl)phenyl)isoindolin-1-one] was tested. Which IC50 [1] did it give?
Its IC50 is 50 nM.

Which IC50 [1] does the source give for `CN1CCC(N2CCN(c3ccc(-c4ccc5c(c4)C(=O)N([C@@H](c4cc6ccccc6[nH]4)c4cc(Cl)ccc4O)C5)cc3)CC2)CC1` [Example 66, (R)-2-((5-chloro-2-hydroxyphenyl)(1H-indole-2-yl)methyl)-6-(4-(4-(1-methylpiperidine-4-yl)piperazine-1-yl)phenyl)isoindolin-1-one] here?
The IC50 was 410 nM.

For `O=C1c2cc(-c3ccc(N4CCCC4)cc3)ccc2CN1[C@@H](c1cc2ccccc2[nH]1)c1cc(F)ccc1O` [Example 67, (R)-2-((5-fluoro-2-hydroxyphenyl)(1H-indole-2-yl)methyl)-6-(4-(pyrrolidine-1-yl)phenyl)isoindolin-1-one], which IC50 [1] is on record?
The IC50 was 790 nM.

How did the IC50 [1] turn out when `O=C1c2cc(-c3ccc(N4CCCC4)cc3)ccc2CN1[C@@H](c1cc2ccccc2[nH]1)c1cc(Cl)ccc1O` [Example 68, (R)-2-((5-chloro-2-hydroxyphenyl)(1H-indole-2-yl)methyl)-6-(4-(pyrrolidine-1-yl)phenyl)isoindolin-1-one] was run?
The IC50 was 250 nM.

For `N[C@@H]1CCN(c2ccc(-c3ccc4c(c3)C(=O)N([C@@H](c3cc5ccccc5[nH]3)c3cc(F)ccc3O)C4)cc2)C1` [Example 69, 6-(4-((R)-3-aminopyrrolidine-1-yl)phenyl)-2-((R)-(5-fluoro-2-hydroxyphenyl)(1H-indole-2-yl)methyl)isoindolin-1-one], which IC50 [1] is on record?
Its IC50 is 56 nM.

For `N[C@@H]1CCN(c2ccc(-c3ccc4c(c3)C(=O)N([C@@H](c3cc5ccccc5[nH]3)c3cc(Cl)ccc3O)C4)cc2)C1` [Example 70, 6-(4-((R)-3-aminopyrrolidine-1-yl)phenyl)-2-((R)-(5-chloro-2-hydroxyphenyl)(1H-indole-2-yl)methyl)isoindolin-1-one], which IC50 [1] is on record?
Its IC50 is 730 nM.

`N[C@H]1CCN(c2ccc(-c3ccc4c(c3)C(=O)N([C@@H](c3cc5ccccc5[nH]3)c3cc(F)ccc3O)C4)cc2)C1` [Example 71, 6-(4-((S)-3-aminopyrrolidine-1-yl)phenyl)-2-((R)-(5-fluoro-2-hydroxyphenyl)(1H-indole-2-yl)methyl)isoindolin-1-one] was tested. Which IC50 [1] did it give?
Its IC50 is 45 nM.
